The values below come from patent publication EP0652009A1, “Identification and use of protease inhibitors” (ELI LILLY AND COMPANY, priority 1993, dated 1995).

In one assay the test system is βAP production. Briefly: Assay 4: βAP production inhibition (cellular assay, ELISA of conditioned media, normalised to MTT). The settings on record: compound at 10 µg/mL; 293 751 SWE and CHO 751 SWE cells (table does not say which); βAP ELISA divided by MTT result, relative to drug-free control; mean and standard deviation of at least six replicate assays. Format: cell-based, human; Chinese hamster. An excerpt:
The test system used to measure the βAP production inhibition activity is typically a cellular assay or an animal model. Preferably, the βAP production inhibition activity is obtained by direct measurement of βAP production in a cellular assay, as described in WO9410569, the full disclosure of which is incorporated herein by reference. This assay is exemplified in Assay 4, below.
Two cell lines (human kidney cell line 293 and Chinese hamster ovary cell line CHO) were stably transfected with the gene for APP-751 containing the double mutation Lys₆₅₁-Met₆₅₂ to Asn₆₅₁-Leu₆₅₂ (APP-751 numbering) commonly called the Swedish mutation using the method described in Citron et al., (1992) Nature 360:672-674. The transfected cell lines were designated as 293 751 SWE and CHO 751 SWE, and were plated in Corning 96 well plates at 2.5x10⁴ or 1x10⁴ cells per well respectively in Dulbecco's minimal essential media plus 10% fetal bovine serum. Following overnight incubation at 37°C in an incubator equilibrated with 10% carbon dioxide (CO₂), the media were removed and replaced with 200 µL per well of media containing an aspartyl protease inhibitor. After a two hour pretreatment period, the media were again removed and replaced with fresh media containing the aspartyl protease inhibitor and the cells were incubated for an additional two hours.
After treatment, plates were centrifuged in a Beckman GPR at 1200 rpm for five minutes at room temperature to pellet cellular debris from the conditioned media. From each well, 100µL of conditioned media were transferred into an ELISA plate precoated with antibody 266 against βAP-13-28 (Seubert et al., supra.) and stored at 4°C overnight. An ELISA assay employing labelled antibody 6C6 (against βAP-1-16) was run the next day to measure the amount of βAP produced.
Cytotoxic effects of the compounds were measured by a modification of the method of Hansen et al., (1989) J. Immun. Meth. 119:203-210. To the cells remaining in the tissue culture plate, was added 25 µL of a 3,(4,5-dimethylthiazol-2-yl)2,5-diphenyltetrazolium bromide (MTT) stock solution (5 mg/mL) to a final concentration of 1 mg/mL. Cells were incubated at 37°C for one hour, and cellular activity was stopped by the addition of an equal volume of MTT lysis buffer (20% w/v sodium dodecylsulfate in 50% DMF, pH 4.7). Complete extraction was achieved by overnight shaking at room temperature. The difference in the OD562nm and the OD650nm was measured in a Molecular Devices UVmax microplate reader as an indicator of the cellular viability.
The results of the βAP ELISA were fit to a standard curve and expressed as ng/mL βAP peptide. In order to normalize for cytotoxicity, these βAP results were divided by the MTT results and expressed as a percentage of the results from a drug-free control.
The compounds prepared above in Examples 9, 12, 13, 20-23, 23A, 24, 30, 41-43, 45, and 48 were assayed for βAP production inhibition activity in cells at 10 µg/mL using Assay 4. The results presented in Assay Table 4, below, are the mean and standard deviation of at least six replicate assays. Assay Table 4

A further assay concerns the target Human liver cathepsin D (Homo sapiens, UniProt P07339). Briefly: Assay 2: cathepsin D inhibition activity (non-cellular fluorometric assay). The format is biochemical. On the set-up: Human liver cathepsin D (Athens Research and Technology, Athens, GA); purchased Athens Research and Technology, Athens, GA. To be noted: compound at 10 µg/mL; percent inhibition of control activity; mean and standard deviation of at least four replicate assays. Here is the method:
A second non-cellular assay for determining in vitro aspartyl protease inhibitory activity utilizes a microtiter plate, where a suitable aspartyl protease, such as cathepsin D is added to each well together with controls. A suitable fluorometric substrate is added to each well. The resultant reaction mixture is allowed to react for a preselected time, e.g., 30 minutes. After enzyme activity is terminated, the substrate or its product may be determined fluorometrically and then the protease inhibition activity may be calculated based on the rates of substrate turnover. This assay is exemplified in Assay 2, below.
A fluorometric assay was adapted from the method disclosed by Murakami et al., (1981) Anal. Biochem. 110:232-239 for measuring renin activity. Human liver cathepsin D (Athens Research and Technology, Athens, GA) was diluted in assay buffer, 200mM NaOAc, pH 4.5, 150mM NaCl to 500 ng/mL and then 100 µL of this cathepsin D solution was added to each well of a 96 well plate with the exception of control wells which received just 100 µL of assay buffer. Compound stocks were prepared by dissolving an aspartyl protease inhibitor in DMSO for each concentration tested in the assay and then 5 µL of compound stock was added to each of the wells prepared above. Blank and enzyme control wells each received 5 µL of the DMSO vehicle.
Following a ten minute incubation at 25°C to allow enzyme/compound interaction, 5 µL of 500µM fluorometric substrate (Suc-Arg-Pro-Phe-His-Leu-Leu-Val-Try-AMC [SEQ ID NO:4], Bachem Biosciences, Philadelphia, PA) in DMSO was added per well to initiate the reaction. After incubation at 37°C for 30 minutes, cathepsin D activity was terminated by the addition of 100 µL per well of 400 mU/mL microsomal leucine aminopeptidase (EC 3.4.11.2, Sigma, St. Louis, MO) in 1M Tris-HCl, pH 8.0.
The plates were then analyzed in a fluorometer (CytoFluor 2350, Millipore, Bedford, MA) with an excitation wavelength of 360nm and an emission wavelength of 460nm, in order to check for background fluorescence due to test compounds. Following a two hour incubation at 37°C, to allow the aminopeptidase to release the fluorophore, 7-amido-4-methylcoumarin (AMC) from the products of cathepsin D cleavage, the plates were again analyzed in the fluorometer. In order to check for potential false positives, i.e., inhibitors of microsomal leucine aminopeptidase, residual aminopeptidase activity was monitored directly in each well by the addition of 20 µL/well of 2.5mM Leu-pNA (Bachem Biosciences, Philadelphia, PA) in 10% DMSO. Aminopeptidase activity was measured as an increase in the absorbance at 405nm in a UVmax microplate reader (Molecular Devices, Menlo Park, CA).
The compounds prepared in Examples 9, 12, 13, 20-23, 23A, 24, 30, 41-43, 45, and 48 were assayed at 10 µg/mL for cathepsin D inhibition activity using Assay 2. Cathepsin D activity was linear under these conditions and the results are expressed as percent inhibition of the control activity in Assay Table 2, below. All results presented are the mean and standard deviation of at least four replicate assays. Assay Table 2

The target of another assay is T1, Human brain cathepsin D (Homo sapiens, UniProt P07339).
T1 construct: Human brain cathepsin D was purified from frozen post-mortem cortex; from tissue; host or cells: human post-mortem brain cortex
T1 sequence (P07339 65-412): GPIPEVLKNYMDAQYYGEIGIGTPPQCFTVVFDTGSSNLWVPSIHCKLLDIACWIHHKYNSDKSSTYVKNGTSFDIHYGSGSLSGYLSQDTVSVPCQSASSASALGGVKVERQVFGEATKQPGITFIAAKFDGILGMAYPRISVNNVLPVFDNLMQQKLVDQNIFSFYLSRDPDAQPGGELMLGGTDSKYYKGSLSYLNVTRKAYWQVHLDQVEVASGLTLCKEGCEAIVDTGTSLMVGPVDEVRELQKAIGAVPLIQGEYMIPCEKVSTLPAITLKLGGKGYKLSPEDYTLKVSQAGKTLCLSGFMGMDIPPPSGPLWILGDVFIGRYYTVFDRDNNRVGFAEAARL
Briefly: Assay 1: cathepsin D inhibition activity (non-cellular assay, porcine renin tetradecapeptide substrate, RP-HPLC). Format: biochemical. The settings on record: purified human brain cathepsin D, pH 4.5, 44 µM porcine renin tetradecapeptide, 37°C. Here is the method:
An example of a non-cellular assay that may be used to determine in vitro aspartyl protease inhibitory activity reacts partially purified human brain cathepsin D with a substrate, e.g., porcine renin tetradecapeptide. The resultant reaction mixture is divided into portions and each portion is incubated for a different period of time. After the reaction is stopped, the turnover of substrate in each portion is determined using reverse-phase HPLC. Protease inhibition activity may be calculated based on the rates of substrate turnover. This assay is exemplified in Assay 1, below. Human brain cathepsin D was purified from frozen post-mortem cortex substantially in accordance with the method of Nixon and Morotta, (1984) J. Neurochem. 43:507-516. The cortex material was prepared and applied to a DEAE-Sepharose® column. The flow through fraction was dialyzed against 50mM Tris-HCl, pH 7.5, and applied to concanavalin A Sepharose® and eluted with 50mM Tris, pH 7.5, 0.5M methyl α-D-mannopyranoside. The eluted cathepsin D activity was dialyzed against 25mM Tris, pH 7.5, and stored at -40°C (Con A pool) until use. For each assay, 50 μL of the Con A pool was diluted to 270 μL in 200mM sodium citrate, pH 4.5, 150mM sodium chloride (NaCl), and incubated for 10 minutes at 4°C with 15 μL of compound stock diluted in dimethylsulfoxide (DMSO). The substrate, porcine renin tetradecapeptide ([…] [SEQ ID NO:3], Bachem Bioscience, Inc., Philadelphia, PA), was added to each reaction mixture to yield a final concentration of 44 μM in a total volume of 300 μL. The samples were incubated at 37°C for 0, 10, 20, or 30 minutes, and then boiled for 5 minutes to stop the reaction. The samples were centrifuged in a microcentrifuge for 10 minutes at 14,000 rpm at 4°C. After centrifugation, 200 μL of each reaction was injected onto […] column (Vydac, Hesperia, CA) with a Perkin Elmer ISS 100 autosampler and eluted with a gradient eluent of 0-50% CH3CN in 0.1% CF3CO2H at 2 mL/min. Peptide product peaks were monitored at 220nm with a Perkin Elmer LC 95 detector and integrated with Rainin Dynamax software in order to quantitate activity.

Non-standard residues stand in square brackets, D forms with d. Residues, ends and D or L forms follow the SMILES beside them. Sta = CC(C)C[C@H](N)[C@@H](O)CC(=O)O; N(iPr)Gly = CC(C)NCC(=O)O

Sequence of Human liver cathepsin D (P07339 169-412 limits assumed): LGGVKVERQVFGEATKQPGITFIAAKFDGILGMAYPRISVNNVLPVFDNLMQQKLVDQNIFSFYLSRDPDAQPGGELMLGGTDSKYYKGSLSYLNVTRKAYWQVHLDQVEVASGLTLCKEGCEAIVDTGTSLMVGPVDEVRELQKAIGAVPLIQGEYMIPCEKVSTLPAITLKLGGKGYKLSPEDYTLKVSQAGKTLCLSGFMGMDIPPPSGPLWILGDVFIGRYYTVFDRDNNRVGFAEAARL
Sequence of Human liver cathepsin D (P07339 65-162 limits assumed): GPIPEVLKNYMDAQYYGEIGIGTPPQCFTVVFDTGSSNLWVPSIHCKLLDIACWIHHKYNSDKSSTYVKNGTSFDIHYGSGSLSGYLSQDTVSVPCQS

For orientation: inhibition means how much of the control response was suppressed. Lower therefore signals little suppression. On to `CC(C)[C@H](NC(=O)c1cnc2ccccc2n1)C(=O)N[C@@H](Cc1ccccc1)[C@H](O)Cc1ccccc1C(=O)NC(C)(C)C` [Example 12, [1S-(1R*,4R*,5S*)]-N-(1-Isopropyl-2-oxo-3-aza-4-phenylmethyl-5-hydroxy-6-(2-(1-t-butylamino-1-oxomethyl)phenyl)hexyl)-2-quinoxalinyl acetamide], for which the inhibition at 10 µg/mL with βAP production stood at 12.4 ± 6%; on Human liver cathepsin D, 12.4 ± 3.7%.

For the compound `CC(C)[C@H](NC(=O)c1ccc2ccccc2c1)C(=O)N[C@@H](Cc1ccccc1)[C@H](O)Cc1ccccc1C(=O)NC(C)(C)C` [Example 13], the inhibition at 10 µg/mL in the assay with βAP production was found to be 91.4 ± 3.9%; at Human liver cathepsin D, 91.4 ± 0.4%. With `CC(C)C[C@H](NC(=O)c1ccc2ccccc2n1)C(=O)N[C@@H](Cc1ccccc1)[C@H](O)Cc1ccccc1C(=O)NC(C)(C)C` [Example 20, [1S-(1R*,4R*,5S*)]-N-(1-(2-Methylpropyl)-2-oxo-3-aza-4-phenylmethyl-5-hydroxy-6-(2-(1-t-butylamino-1-oxomethyl)phenyl)hexyl)-quinolin-2-yl carboxamide], the inhibition at 10 µg/mL in the assay on βAP production was determined as 94.8 ± 3.1%; against Human liver cathepsin D it was 94.8 ± 0.6%. For `CC(C)[C@H](NC(=O)OC(C)(C)C)C(=O)N[C@@H](Cc1ccccc1)[C@H](O)Cc1ccccc1C(=O)NC(C)(C)C` [Example 23A, [2R-(2R*,3S*,6S*)]-N-t-Butyl-2-[2-hydroxy-3-phenylmethyl-4-aza-5-oxo-6-N(t-butoxycarbonyl)amino-7-methyl]octyl benzamide] the same measures were 32.5 ± 3.3% and 32.5 ± 4.7%. Usually IC50 stands for the point on the concentration scale where inhibition reaches its midpoint. Read a high IC50 as a need for much substance. In the case of `CC[C@H](C)[C@H](NC(=O)C[C@H](O)[C@H](CC(C)C)NC(=O)CNC(C)C)C(=O)N[C@@H](C)C(=O)N[C@H](C(=O)O)[C@@H](C)O` [Example 44, (CH3)2CH-Gly-Sta-Ile-Ala-Thr-OH] (H-[N(iPr)Gly][Sta]IAT-OH), the IC50 against Human brain cathepsin D was > 100 nM. On to `CC(C)C[C@H](NC(=O)[C@@H](NC(=O)CNC(C)C)C(C)C)[C@@H](O)CC(=O)N[C@@H](C)C(=O)N[C@H](C(=O)O)[C@@H](C)O` [Example 46, (CH3)2CH-Gly-Val-Sta-Ala-Thr-OH] (H-[N(iPr)Gly]V[Sta]AT-OH), for which the IC50 against Human brain cathepsin D is > 250 nM.

With `CC[C@H](C)[C@H](NC(=O)[C@@H](NC(=O)[C@@H](NC(=O)CNC(C)C)C(C)C)C(C)C)C(=O)N[C@@H](CC(C)C)[C@@H](O)CC(=O)N[C@H](C(=O)O)[C@@H](C)O` [Example 47, (CH3)2CH-Gly-Val-Val-Ile-Sta-Thr-OH] (H-[N(iPr)Gly]VVI[Sta]T-OH), the IC50 on Human brain cathepsin D is > 250 nM.

With “[1S-(1R*,4R*,5S*)]-N-(1-(Propyl)-2-oxo-3-aza-4-phenylmethyl-5-hydroxy-6-(2-(1-t-butylamino-1-oxomethyl)phenyl)hexyl)-quinolin-2-yl carboxamide [Example 21]”, the “βAP Production Inhibition” value in the assay with βAP production is given as 78.3 ± 1.5%. At Human liver cathepsin D, the “Cathepsin D Inhibition” value is on record as 78.3 ± 3.8%.
